Laboratory results as given in PubChem BioAssay AID2060890 (Molecular Pharmacology Branch, DTP, NCI, 2025).

Tested on: LG0703-F948-PDC complex spheroid viability
Test: Anticancer human tumor LG0703-F948-PDC patient-derived lung adenocarcinoma cell line growth inhibition [RAS]
Conditions: for IC50: curve of first compound; for viability, T/C: stronger effect = lower value
How it was run: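 Agents were tested in combination matrices in half-log decrements from a top concentration at or near clinical Cmax (10 microM if undetermined). Targets were multi-cell spheroids of tumour lines plus HUVEC and MSC stromal cells.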
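Note: spheroids exposed to agents for 7 days.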
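Throughout, for viability, T/C: 100% = DMSO vehicle wells.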

C=CC(=O)Nc1cc(Nc2nccc(-c3cn(C)c4ccccc34)n2)c(OC)cc1N(C)CCN(C)C + CCn1c(-c2cccnc2C(C)OC)c2c3cc(ccc31)N1CCOC(CC(NC(=O)C(C(C)C)N(C)C(=O)C3(F)CCN(C(=O)C#CC(C)(C)N(C)C)CC3)C(=O)N3CCCC(N3)C(=O)OCC(C)(C)C2)C1
IC50 (second compound 0.000949 µM): 13.1 nM | IC50 (second compound 0.003 µM): 13.9 nM | IC50 (second compound 0.00949 µM): 12.1 nM | IC50 (second compound 0.03 µM): 9.92 nM | IC50 (second compound 0.0949 µM): 4.89 nM | IC50 (second compound 0.3 µM): < 3.16 nM | viability, T/C (second compound 0.000949 µM, first compound 0.00316 µM): 78.5% | viability, T/C (second compound 0.000949 µM, first compound 0.01 µM): 56.9% | viability, T/C (second compound 0.000949 µM, first compound 0.0316 µM): 27.3% | viability, T/C (second compound 0.000949 µM, first compound 0.1 µM): 20.5% | viability, T/C (second compound 0.000949 µM, first compound 0.316 µM): 19.1% | viability, T/C (second compound 0.000949 µM, first compound 1 µM): 13.9% | viability, T/C (second compound 0.003 µM, first compound 0.00316 µM): 88.6% | viability, T/C (second compound 0.003 µM, first compound 0.01 µM): 57.5% | viability, T/C (second compound 0.003 µM, first compound 0.0316 µM): 31.1% | viability, T/C (second compound 0.003 µM, first compound 0.1 µM): 21.5% | viability, T/C (second compound 0.003 µM, first compound 0.316 µM): 16.2% | viability, T/C (second compound 0.003 µM, first compound 1 µM): 15.6% | viability, T/C (second compound 0.00949 µM, first compound 0.00316 µM): 83.4% | viability, T/C (second compound 0.00949 µM, first compound 0.01 µM): 55.6% | viability, T/C (second compound 0.00949 µM, first compound 0.0316 µM): 22.3% | viability, T/C (second compound 0.00949 µM, first compound 0.1 µM): 18.5% | viability, T/C (second compound 0.00949 µM, first compound 0.316 µM): 19.7% | viability, T/C (second compound 0.00949 µM, first compound 1 µM): 15.2% | viability, T/C (second compound 0.03 µM, first compound 0.00316 µM): 82.6% | viability, T/C (second compound 0.03 µM, first compound 0.01 µM): 49.6% | viability, T/C (second compound 0.03 µM, first compound 0.0316 µM): 26.6% | viability, T/C (second compound 0.03 µM, first compound 0.1 µM): 15.5% | viability, T/C (second compound 0.03 µM, first compound 0.316 µM): 17.4% | viability, T/C (second compound 0.03 µM, first compound 1 µM): 14.4% | viability, T/C (second compound 0.0949 µM, first compound 0.00316 µM): 60.2% | viability, T/C (second compound 0.0949 µM, first compound 0.01 µM): 33.1% | viability, T/C (second compound 0.0949 µM, first compound 0.0316 µM): 21.2% | viability, T/C (second compound 0.0949 µM, first compound 0.1 µM): 14.9% | viability, T/C (second compound 0.0949 µM, first compound 0.316 µM): 13.9% | viability, T/C (second compound 0.0949 µM, first compound 1 µM): 12.1% | viability, T/C (second compound 0.3 µM, first compound 0.00316 µM): 29.1% | viability, T/C (second compound 0.3 µM, first compound 0.01 µM): 17.5% | viability, T/C (second compound 0.3 µM, first compound 0.0316 µM): 9.89% | viability, T/C (second compound 0.3 µM, first compound 0.1 µM): 9.16% | viability, T/C (second compound 0.3 µM, first compound 0.316 µM): 9.3% | viability, T/C (second compound 0.3 µM, first compound 1 µM): 13.5%

CCN1CCN(Cc2ccc(Nc3ncc(F)c(-c4cc(F)c5nc(C)n(C(C)C)c5c4)n3)nc2)CC1 + C#Cc1c(F)ccc2cc(O)cc(-c3ncc4c(N5CC6CCC(C5)N6)nc(OCC56CCCN5CC(F)C6)nc4c3F)c12
IC50 (second compound 0.0316 µM): > 1000 nM | IC50 (second compound 0.1 µM): > 1000 nM | IC50 (second compound 0.316 µM): > 1000 nM | IC50 (second compound 1 µM): > 1000 nM | IC50 (second compound 3.16 µM): > 1000 nM | IC50 (second compound 10 µM): 7.25 nM | viability, T/C (second compound 0.0316 µM, first compound 0.00316 µM): 114% | viability, T/C (second compound 0.0316 µM, first compound 0.01 µM): 84% | viability, T/C (second compound 0.0316 µM, first compound 0.0316 µM): 78.3% | viability, T/C (second compound 0.0316 µM, first compound 0.1 µM): 92.2% | viability, T/C (second compound 0.0316 µM, first compound 0.316 µM): 82.7% | viability, T/C (second compound 0.0316 µM, first compound 1 µM): 79.8% | viability, T/C (second compound 0.1 µM, first compound 0.00316 µM): 119% | viability, T/C (second compound 0.1 µM, first compound 0.01 µM): 90.3% | viability, T/C (second compound 0.1 µM, first compound 0.0316 µM): 92.1% | viability, T/C (second compound 0.1 µM, first compound 0.1 µM): 90.5% | viability, T/C (second compound 0.1 µM, first compound 0.316 µM): 74% | viability, T/C (second compound 0.1 µM, first compound 1 µM): 69.7% | viability, T/C (second compound 0.316 µM, first compound 0.00316 µM): 103% | viability, T/C (second compound 0.316 µM, first compound 0.01 µM): 99.5% | viability, T/C (second compound 0.316 µM, first compound 0.0316 µM): 84.5% | viability, T/C (second compound 0.316 µM, first compound 0.1 µM): 81.1% | viability, T/C (second compound 0.316 µM, first compound 0.316 µM): 75.5% | viability, T/C (second compound 0.316 µM, first compound 1 µM): 70% | viability, T/C (second compound 1 µM, first compound 0.00316 µM): 84% | viability, T/C (second compound 1 µM, first compound 0.01 µM): 77.7% | viability, T/C (second compound 1 µM, first compound 0.0316 µM): 68.5% | viability, T/C (second compound 1 µM, first compound 0.1 µM): 68.7% | viability, T/C (second compound 1 µM, first compound 0.316 µM): 77.6% | viability, T/C (second compound 1 µM, first compound 1 µM): 64.1% | viability, T/C (second compound 3.16 µM, first compound 0.00316 µM): 73.2% | viability, T/C (second compound 3.16 µM, first compound 0.01 µM): 71.9% | viability, T/C (second compound 3.16 µM, first compound 0.0316 µM): 56.8% | viability, T/C (second compound 3.16 µM, first compound 0.1 µM): 57% | viability, T/C (second compound 3.16 µM, first compound 0.316 µM): 71.3% | viability, T/C (second compound 3.16 µM, first compound 1 µM): 45% | viability, T/C (second compound 10 µM, first compound 0.00316 µM): 62.5% | viability, T/C (second compound 10 µM, first compound 0.01 µM): 44.3% | viability, T/C (second compound 10 µM, first compound 0.0316 µM): 47.7% | viability, T/C (second compound 10 µM, first compound 0.1 µM): 47.5% | viability, T/C (second compound 10 µM, first compound 0.316 µM): 49.5% | viability, T/C (second compound 10 µM, first compound 1 µM): 36.9%

Nc1ccn(C2OC(CO)C(O)C2(F)F)c(=O)n1 (centres undefined)
viability, T/C (compound 0.00316 µM): 73.4% [middle of 4 runs] | viability, T/C (compound 0.0316 µM): 38.3% [middle of 4 runs] | viability, T/C (compound 0.1 µM): 37.3% [middle of 4 runs] | viability, T/C (compound 0.316 µM): 37.3% [middle of 4 runs] | viability, T/C (compound 1 µM): 32.1% [middle of 4 runs]
